Reference: paper PMC11902257, “Antiprotozoal Aminosteroids from Pachysandra terminalis” (Molecules, 2025)
Where “and” joins values, the source holds several entries; their conditions need not be identical. Equal values may be shown once. Read-outs that look alike come from different tables or passages of the source.

Assays:
Type in all cases: cell-based
[1] = test system: Plasmodium falciparum (Pf) NF54 strain; assay: in vitro antiplasmodial assay, 3H-hypoxanthine incorporation, erythrocytic stages; conditions: for SI (Pf): Selectivity index IC50(Cytotox)/IC50(Pf)
Procedure: Plasmodium falciparum (Pf): Tests were performed against erythrocytic stages of the drug-sensitive NF54 strain. The NF54 strain was obtained from F. Hoffmann-La Roche Limited (Basel, Switzerland). The strain NF54 was originally derived from a patient living near Schiphol Airport, Amsterdam, who had never left the Netherlands. The assay was performed using a 3H-hypoxanthine incorporation assay. Serial compound dilutions were prepared with the medium as indicated above and then added in 96-well plates to parasite cultures incubated in the medium previously described, consisting of RPMI 1640 supplemented with 0.5% ALBUMAX® II, 25 mM Hepes, 25 mM NaHCO3 (pH 7.3), 0.36 mM hypoxanthine, and 100 μg/mL neomycin. The plates were incubated in a humidified atmosphere at 37 °C, 4% CO2, 3% O2, and 93% N2. After 48 h, 0.25 μCi of 3H-hypoxanthine was added to each well. Incubation was continued under identical conditions for a further 24 h. The plates were then harvested using a Betaplate™ cell harvester (Wallac, Zurich, Switzerland). The red blood cells were transferred onto a glass fiber filter and washed with distilled H2O. After drying, filters were inserted into a plastic foil with 10 mL of scintillation fluid and counted with a Betaplate™ liquid scintillation counter (Wallac, Zurich, Switzerland). Data were treated according to [44] (see below). The positive control was chloroquine.
(§1) Bioassay data and statistical methods: In all cases, the readout data were plotted in Microsoft Excel. Half-maximal inhibitory concentrations (IC50 values) were calculated from the sigmoidal dose-response curves by linear regression. Two independent replicates of the assay were performed in all cases, and the results were expressed as arithmetic mean ± deviation from the mean.

[2] = cytotoxicity against L-6 rat skeletal myoblasts, resazurin
Procedure: Cytotoxicity against L-6 rat skeletal myoblasts: The L6 rat skeletal myoblast cell line used for cytotoxicity tests was obtained from the American Type Culture Collection (ATCC, Manassas, VA, USA) as ATCC-CRL-1458 [50]. The cells were cultivated in RPMI 1640 medium supplemented with 1% L-glutamine (200mM) and 10% fetal bovine serum. Cultures were maintained at 37 °C in an atmosphere of 5% CO2. Assays were performed in 96-well plates, each well containing RPMI 1640 medium supplemented with 1% L-glutamine (200 mM), 10% fetal bovine serum, and 2 × 10^3 L-6 cells/well. Plates were incubated at 37 °C under a 5% CO2 atmosphere for 24 h. Compounds were dissolved in DMSO (10 mg/mL). After 24 h, serial drug dilutions of eleven 3-fold dilution steps covering a range from 100 to 0.002 μg/mL were prepared, and the plates were incubated at 37 °C under 5% CO2 for 70 h. After 70 h incubation, 10 μL of resazurin solution (12.5 mg resazurin in 100 mL 1xPBS) was added per well, and plates were incubated for an additional 2 h. After that, the plates were read with a Spectramax Gemini EM microplate fluorometer (Molecular Devices, San Jose, CA, USA) using an excitation wavelength of 536 nm and an emission wavelength of 588 nm. Data were treated according to [44] (see below). Podophyllotoxin served as a positive control.
as §1

[3] = test system: Trypanosoma brucei rhodesiense (Tbr) STIB900 strain; assay: in vitro antitrypanosomal assay, bloodstream forms, resazurin; conditions: for SI(Tbr): Selectivity index IC50(Cytotox)/IC50(Tbr)
Procedure: Trypanosoma brucei rhodesiense (Tbr): The STIB900 strain is a derivative of the STIB704 strain isolated from a patient in Ifakara, Tanzania, in 1982 [43]. The bloodstream forms were cultivated as axenic culture in HMI-9 medium, supplemented with 15% heat-inactivated horse serum. Cultures were maintained at 37 °C in an atmosphere of 5% CO2. Test compounds were dissolved in DMSO (10 mg/mL), and serial drug dilutions of eleven 3-fold dilution steps covering a range from 100 to 0.002 μg/mL were prepared in a 96-well plate. Bloodstream-form of T. b rhodesiense strain STIB900 (2 × 10^3/well) was added into the wells. After 68 h incubation, 10 μL of resazurin solution (12.5 mg resazurin in 100 mL 1xPBS) was added per well, and plates were incubated for an additional 4 h. Subsequently, the plates were read with a Spectramax Gemini EM microplate fluorometer (Molecular Devices, San Jose, CA, USA) using an excitation wavelength of 536 nm and an emission wavelength of 588 nm. Data were treated according to [44] (see below). Melarsoprol was used as a positive control.
as §1

[4] = Plasmodium falciparum, NF54, read-out: IC50 Pf [µg/mL]
[5] = Trypanosoma brucei, pure compounds, tested as mono- or bis-trifluoroacetates where marked, read-out: IC50 Tbr (converted)
[6] = Trypanosoma brucei, values in brackets, calculated with the molecular masses of the corresponding salts, read-out: IC50 Tbr (converted)
[7] = Plasmodium falciparum, NF54, pure compounds, tested as mono- or bis-trifluoroacetates where marked, read-out: IC50 Pf (converted)
[8] = Plasmodium falciparum, NF54, values in brackets, calculated with the molecular masses of the corresponding salts, read-out: IC50 Pf (converted)
[9] = values in brackets, calculated with the molecular masses of the corresponding salts, read-out: IC50 Tbr (converted)
[10] = pure compounds, tested as mono- or bis-trifluoroacetates where marked

Compound | IC50 at 70 h [2] | SI(Tbr) ([3]; pure compounds) | IC50 [3, 5] [µg/mL] | IC50 [3, 6] [µM] | IC50 [1, 7] [µg/mL] | IC50 [1, 8] [µM] | SI (Pf) ([1]; pure compounds) | other results
CCN(CC)CCCC(C)Nc1ccnc2cc(Cl)ccc12 (stereo not shown) [Chloroquine, reference compound] | – | – | – | – | – | – | – | IC50 ([1]; Plasmodium falciparum, NF54, read-out: IC50 Pf): 0.002 µg/mL; IC50 [1, 4]: 0.002 µg/mL
CC1=CC(=O)CC(C)(C)C1CCC(C)N(C)C (stereo not shown) [Compound 1] | 47 µg/mL and 198 µM | 8 | 6.2 ± 0.9 | 26.2 | 0.93 ± 0.07 | 3.91 | 51 | –
CN[C@@H](C)[C@H]1CC[C@H]2[C@@H]3CC=C4C[C@@H](N(C)C)CC[C@]4(C)[C@H]3CC[C@]12C [Compound 2, 5,6-Dehydro-desacyl-epipachysamine A] | 19 µg/mL and 33 µM | 10 | 1.9 ± 0.2 | 3.2 | 0.898 ± 0.002 | 1.53 | 21 | –
CN[C@@H](C)[C@H]1CC[C@H]2[C@@H]3CC[C@H]4C[C@@H](N(C)C)CC[C@]4(C)[C@H]3CC[C@]12C [Compound 3, Desacyl-epipachysamine A] | 18 µg/mL and 30 µM | – | 2 ± 0.2 | 3.5 | 0.85 ± 0.03 | 1.44 | 21 | –
C[C@@H]([C@H]1CC[C@H]2[C@@H]3CC[C@H]4C[C@@H](NC(=O)c5cccnc5)CC[C@]4(C)[C@H]3CC[C@]12C)N(C)C [Compound 4, Epipachysamine B] | 5.2 µg/mL and 7.7 µM | 3 | 1.6 ± 0.5 | 2.4 | 2.3 ± 0.2 | 3.4 | 2 | –
C[C@@H]([C@H]1CC[C@H]2[C@@H]3CC=C4C[C@@H](NC(=O)c5cccnc5)CC[C@]4(C)[C@H]3CC[C@]12C)N(C)C [Compound 5, Pactermine A] | 5.8 µg/mL and 8.6 µM | 3 | 1.93 ± 0.06 | 2.85 | 0.91 ± 0.02 | 1.34 | 6 | –
CN[C@@H](C)[C@H]1CC[C@H]2[C@@H]3CC[C@H]4C[C@@H]([N+](C)(C)CCl)CC[C@]4(C)[C@H]3CC[C@]12C [Compound 6, N3-chloromethyl-desacyl-epipachysamine A] | 87 µg/mL and 136 µM | 74 | 1.2 ± 0.4 | 1.9 | 0.25 ± 0.03 | 0.39 | 346 | –
CNC1CCC2(C)C3CCC4(C)C(CCC4C(C)N(C)C)C3CCC2C1OC(=O)c1ccccc1 (stereo not shown) [Compound 7] | 10 µg/mL and 15 µM | 133 | 0.079 ± 0.001 | 0.11 | 0.45 ± 0.09 | 0.63 | 23 | IC50 [3, 9]: 0.112 µM
CN[C@@H]1CC[C@@]2(C)[C@@H](CC[C@@H]3[C@@H]2CC[C@]2(C)[C@@H]([C@H](C)N(C)C)CC[C@@H]32)C1 [Compound 8, Pachysamine A] | 10.4 µg/mL and 17.7 µM | 13 | 0.8 ± 0.1 | 1.3 | 1.82 ± 0.06 | 3.09 | 6 | –
CC(=O)[C@H]1CC[C@H]2[C@@H]3CCC4C[C@@H](N(C)C)CC[C@]4(C)[C@H]3CC[C@]12C (stereo partly drawn) [Compound 9, 3β-Dimethylamino-pregnane-20-one] | – | 3 | 2.21 ± 0.06 | 4.8 | – | – | 0.8 | IC50 at 70 h ([2]; L6 cells, values in brackets, calculated with the molecular masses of the corresponding salts, read-out: IC50 Cytotox (converted)): 14 µM; IC50 at 70 h ([2]; pure compounds, L6 cells, tested as mono- or bis-trifluoroacetates where marked, read-out: IC50 Cytotox (converted)): 6 ± 2 µg/mL; IC50 ([1]; Plasmodium falciparum, NF54, read-out: IC50 Pf (µM)): 18 µM; IC50 [1, 4]: 8 ± 2 µg/mL
CN[C@@H]1CC[C@]2(C)[C@H]3CC[C@]4(C)[C@@H]([C@H](C)N(C)C)CC[C@H]4[C@@H]3CC[C@H]2[C@@H]1OC(=O)C=C(C)C [Compound 10, Pachysandrine D] | 6.5 µg/mL and 9.5 µM | 9 | 0.69 ± 0.03 | 0.95 | 0.66 ± 0.13 | 1.01 | 10 | IC50 [3, 9]: 1.01 µM; IC50 ([1]; values in brackets, calculated with the molecular masses of the corresponding salts, read-out: IC50 Pf (converted)): 0.97 µM
C[C@@H]([C@H]1CC[C@H]2[C@@H]3CC[C@H]4[C@H](O)[C@@H](O)CC[C@]4(C)[C@H]3CC[C@]12C)N(C)C [Compound 11, Terminaline] | 28 µg/mL and 60 µM | 5 | 5.9 ± 0.3 | 12.4 | 3 ± 1 | 7 | 8 | –
C[C@@H]([C@H]1CC[C@H]2[C@@H]3CC[C@H]4C[C@@H](N(C)C)CC[C@]4(C)[C@H]3CC[C@]12C)N(C)C [Compound 12, N-methyl-desacyl-epipachysamine A] | 7 µg/mL and 11 µM | 3 | 2.3 ± 0.2 | 3.9 | 2.5 ± 0.3 | 4.1 | 3 | –
C[C@@H]([C@H]1CC[C@H]2[C@@H]3CC=C4C[C@@H](N(C)C)CC[C@]4(C)[C@H]3CC[C@]12C)N(C)C [Compound 13, Sarcodinine] | 11 µg/mL and 18 µM | 4 | 2.6 ± 0.4 | 4.3 | 4.6 ± 0.7 | 7.7 | 2 | –
CC(=O)N(C)[C@@H](C)[C@H]1CC[C@H]2[C@@H]3CC[C@H]4C[C@@H](N(C)C)CC[C@]4(C)[C@H]3CC[C@]12C [Compound 14, Epipachysamine A] | 12 µg/mL and 23 µM | 5 | 2.14 ± 0.05 | 4.14 | 18 ± 1 | 36 | 0.6 | –
C[C@@H]([C@H]1CC[C@H]2[C@@H]3CC[C@H]4C[C@]5(CC[C@]4(C)[C@H]3CC[C@]12C)c1ccccc1C(=O)N5C)N(C)C [Compound 15, Spiropachysine] | 7.3 µg/mL and 12.7 µM | 3 | 2.21 ± 0.04 | 3.83 | 3 ± 1 | 6 | 2 | –
Nc1nc(N)nc(Nc2ccc([As]3SCC(CO)S3)cc2)n1 (stereo not shown) [Melarsoprol, reference compound] | – | – | – | – | – | – | – | IC50 ([3]; Trypanosoma brucei, read-out: IC50 Tbr): 0.007 ± 0.002 µg/mL; IC50 ([3]; Trypanosoma brucei, read-out: IC50 Tbr [µg/mL]): 0.007 ± 0.002 µg/mL
COc1cc([C@@H]2c3cc4c(cc3[C@H](O)[C@H]3COC(=O)[C@H]23)OCO4)cc(OC)c1OC [Podophyllotoxin, reference compound] | – | – | – | – | – | – | – | IC50 at 70 h ([2]; crude extracts and acid/base fractions, L6 cells, mean of two determinations ± deviation, read-out: IC50 Cytotox (converted)): 0.009 ± 0.001 µg/mL
O=C(O)C(F)(F)F [Trifluoroacetate, reference compound] | – | – | – | – | – | – | – | IC50 Tbr [3, 10]: >100 µg/mL; IC50 Pf [1, 10]: >100 µg/mL
